Data: US12344631B2, “C17 polar-substituted heteroaromatic synthetic triterpenoids and methods of use thereof” (REATA PHARMACEUTICALS, INC., priority 2019, dated 2025)

What was measured:
[1] = tested on: RAW 264.7 cells; experiment: Nitric oxide suppression assay (IFNγ-induced NO production); type: cell-based, mouse; conditions: for IC50: Mus musculus, RAW264.7, RAW 264.7 cells, 2 h pretreatment, 20 ng/mL interferon gamma 24 h, nitrite by Griess, read-out: NO IC50 (nM) (Mean ± SD); for NO IC50 Relative to RTA 402 (fold) (Mean ± SD): average of ratios from replicate experiments, benchmark RTA 402
Method: Tissue Culture. RAW 264.7, a mouse macrophage cell line, was obtained from American Type Culture Collection (Manassas VA) and maintained in the log phase of growth in Roswell Park Memorial Institute Medium 1640 (RPMI 1640) supplemented with 10% heat inactivated fetal bovine serum (FBS) and 1% penicillin-streptomycin. Cells were cultured and maintained in a humidified incubator at 37° C. under 5% CO2. Cells were sub-cultured every 3 days. […] All cell culture supplies were obtained from Life Technologies (Grand Island, NY) and VWR (Radnor, PA). Nitric Oxide Suppression Assay. RAW 264.7 cells were plated 1 day in advance of experimental treatments at a concentration of 30,000 cells per well onto Falcon-96 well clear bottom plates (Corning, NY) in a total volume of 200 μL per well using RPMI 1640 supplemented with 0.5% fetal bovine serum and 1% penicillin-streptomycin. The next day, cells were pretreated with compounds serially diluted from 1000× stocks. All compounds were dissolved in dimethyl sulfoxide (DMSO) at 10 mM stock solutions. Compounds were subsequently diluted in DMSO and RPMI 1640. Each well received a final concentration of 0.1% DMSO. Cells were pretreated for 2 hours and incubation at 37° C., followed by treatment with 20 ng/mL of interferon gamma (R&D Systems, Minneapolis, MN) per well for 24 hours. […] Afterwards, 50 μL of cell culture supernatant was transferred from each well into a new Falcon-96 well clear bottom plate. […] Afterwards, air bubbles were removed using ethanol vapor and absorbance was measured using a Spectramax M2e plate reader with a wavelength set to 525 nm. Viability was assessed using WST-1 cell proliferation reagent from Roche (Basel, Switzerland). After media was removed for the Nitric Oxide suppression assay, 15 μL of WST-1 reagent was added to each well of cells. Plates were briefly mixed on an orbital shaker and the cells were incubated at 37° C. for 30 minutes. Absorbance was measured using a Spectramax M2e plate reader with wavelengths set to 440 nm and 700 nm. For the ability of compounds to suppress the increase in nitric oxide release caused by interferon gamma, the absolute amount of nitrite that was produced in each well was extrapolated from the nitrite standards using a linear regression fit. All values were then normalized to the DMSO-interferon gamma treated wells and plotted as percent nitric oxide. IC50 values were calculated with a dependence on WST1 viability using Excel and/or GraphPad Prism (San Diego, CA).

[2] = tested on: AREc32 reporter cell line (antioxidant response element of rat Gsta2, Nrf2 target gene); experiment: AREc32 luciferase reporter activation; type: cell-based, human; conditions: for AREc32 EC2X Relative to RTA 402 (fold) (Mean ± SD): average of ratios from replicate experiments, benchmark RTA 402; for EC (2-fold): human, Arec32, 19 h, concentration increasing luminescence signal 2-fold above vehicle, nineteen hours, read-out: AREc32 EC2X (nM) (Mean ± SD)
Method: […] The effect of several compounds disclosed herein on luciferase reporter activation was assessed in the AREc32 reporter cell line (see Table 10 and Table 11). This cell line is derived from human breast carcinoma MCF-7 cells and is stably transfected with a luciferase reporter gene under the transcriptional control of eight copies of the antioxidant response element from the rat Gsta2 gene, an Nrf2 target gene ([…] et al., 1990). […] Twenty-four hours after plating, cells were treated with vehicle (DMSO) or test compounds at concentrations ranging from 0.03 to 1000 nM for nineteen hours. Media was removed and 100 μL of 1:1 mixture of the One-Glo Luciferase assay reagent and culture medium was added to each well. After incubation for 5 min at room temperature, the luminescence signal was measured on a PHERAstar plate reader. The EC2X value was determined using Excel and GraphPad Prism software. The fold increase in luminescence signal for cells treated with each concentration of compound relative to cells treated with vehicle was determined and a dose-response curve was generated. The dose-response curve was fit using nonlinear regression analysis and used to extrapolate the EC2X value.

[3] = tested on: AML-12 hepatocyte cell line; experiment: Glutathione assay (total glutathione, GSH-Glo); type: cell-based, mouse
Method: The effect of compound treatment on total glutathione levels was evaluated in the mouse AML-12 hepatocyte cell line. Glutathione—a tripeptide consisting of cysteine, glutamate, and glycine—is the major thiol-containing protein within the cell and regulates cellular redox balance. Glutathione also plays important roles in detoxification, protein glutathionylation, and iron-sulfur cluster biogenesis (Bachhawat and Yadav, 2018). Nrf2 regulates the expression of many genes involved in glutathione synthesis and metabolism, including both subunits of glutamate cysteine ligase (GCL), the enzyme that catalyzes the rate limiting step of glutathione biosynthesis (Thimmulappa et al., 2002). […] The next day, cells were treated with vehicle (DMSO) or test compound (0.03 nM to 1000 nM). Each well received a final concentration of 0.1% DMSO. Cells were incubated at 37° C., 5% CO2 for 24 hours. Total glutathione concentrations were measured using the GSH-Glo Glutathione Assay kit (Promega) according to the manufacturer's instructions. Briefly, a standard curve was prepared by serially diluting the provided glutathione solution. […] After a 30-minute incubation at room temperature, 100 μL of Luciferin detection reagent was added to all sample and standard wells and incubated for 15 minutes. Luminescence was measured using a PHERAstar plate reader. The EC50 value was determined using Excel and GraphPad Prism software. The basal concentration of glutathione was set to 0% and the highest concentration of glutathione produced following treatment with a test compound was set to 100% and a dose-response curve was generated. The dose-response curve was fit using nonlinear regression analysis and used to extrapolate the EC50 value.

SMILES: CC1(C)CC[C@]2(c3nnn(CCF)n3)CC[C@]3(C)[C@H](C(=O)C=C4[C@@]5(C)C=C(C#N)C(=O)C(C)(C)[C@@H]5CC[C@]43C)[C@@H]2C1 [Compound T10]
- IC50 [1]: 2.2 ± 0.2 nM
- NO IC50 Relative to RTA 402 (fold) (Mean ± SD) [1]: 1.62 ± 0.16 fold
- AREc32 EC2X Relative to RTA 402 (fold) (Mean ± SD) [2]: 2.41 ± 0.98 fold
- EC (2-fold) [2]: 28.4 ± 9.42 nM
- EC50 ([3]; Mus musculus, AML12, AML-12 cells, 24 hours, total glutathione, read-out: GSH EC50 (nM) (Mean ± SD)): 1.45 ± 0.17 nM
- GSH EC50 Relative to RTA 402 (fold) (Mean ± SD) ([3]; benchmark RTA 402): 1.14 ± 0.03 fold

SMILES: CC1(C)CC[C@]2(c3nc(C4CC4)no3)CC[C@]3(C)[C@H](C(=O)C=C4[C@@]5(C)C=C(C#N)C(=O)C(C)(C)[C@@H]5CC[C@]43C)[C@@H]2C1 [Compound T29]
- IC50 [1]: 4.03 nM
- NO IC50 Relative to RTA 402 (fold) (Mean ± SD) [1]: 2.49 fold
- AREc32 EC2X Relative to RTA 402 (fold) (Mean ± SD) [2]: 2.84 fold
- EC (2-fold) [2]: 43.7 nM

SMILES: CC1(C)CC[C@]2(c3nc(CO)no3)CC[C@]3(C)[C@H](C(=O)C=C4[C@@]5(C)C=C(C#N)C(=O)C(C)(C)[C@@H]5CC[C@]43C)[C@@H]2C1 [Compound T42]
- IC50 [1]: 0.44 nM
- NO IC50 Relative to RTA 402 (fold) (Mean ± SD) [1]: 0.32 fold
- AREc32 EC2X Relative to RTA 402 (fold) (Mean ± SD) [2]: 0.26 fold
- EC (2-fold) [2]: 2.58 nM

SMILES: CC(=O)OCCc1noc([C@]23CCC(C)(C)C[C@H]2[C@H]2C(=O)C=C4[C@@]5(C)C=C(C#N)C(=O)C(C)(C)[C@@H]5CC[C@@]4(C)[C@]2(C)CC3)n1 [Compound T14]
- IC50 [1]: 0.48 nM
- NO IC50 Relative to RTA 402 (fold) (Mean ± SD) [1]: 0.31 fold

SMILES: CCCc1noc([C@]23CCC(C)(C)C[C@H]2[C@H]2C(=O)C=C4[C@@]5(C)C=C(C#N)C(=O)C(C)(C)[C@@H]5CC[C@@]4(C)[C@]2(C)CC3)n1 [Compound T26]
- IC50 [1]: 7.82 nM
- NO IC50 Relative to RTA 402 (fold) (Mean ± SD) [1]: 4.83 fold

SMILES: CCNC(=O)NCCc1noc([C@]23CCC(C)(C)C[C@H]2[C@H]2C(=O)C=C4[C@@]5(C)C=C(C#N)C(=O)C(C)(C)[C@@H]5CC[C@@]4(C)[C@]2(C)CC3)n1 [Compound T18]
- IC50 [1]: 1.33 nM
- NO IC50 Relative to RTA 402 (fold) (Mean ± SD) [1]: 0.86 fold

SMILES: CC1(C)CC[C@]2(c3nc(C4CCCCC4)no3)CC[C@]3(C)[C@H](C(=O)C=C4[C@@]5(C)C=C(C#N)C(=O)C(C)(C)[C@@H]5CC[C@]43C)[C@@H]2C1 [Compound T33]
- IC50 [1]: 25.6 nM
- NO IC50 Relative to RTA 402 (fold) (Mean ± SD) [1]: 15.81 fold

SMILES: CC1(C)CC[C@]2(c3nc(CC4CC4)no3)CC[C@]3(C)[C@H](C(=O)C=C4[C@@]5(C)C=C(C#N)C(=O)C(C)(C)[C@@H]5CC[C@]43C)[C@@H]2C1 [Compound T30]
- IC50 [1]: 4.82 nM
- NO IC50 Relative to RTA 402 (fold) (Mean ± SD) [1]: 2.97 fold
- AREc32 EC2X Relative to RTA 402 (fold) (Mean ± SD) [2]: 4.19 fold
- EC (2-fold) [2]: 64.5 nM

SMILES: CC1(C)CC[C@]2(c3nc(C4CCCC4)no3)CC[C@]3(C)[C@H](C(=O)C=C4[C@@]5(C)C=C(C#N)C(=O)C(C)(C)[C@@H]5CC[C@]43C)[C@@H]2C1 [Compound T32]
- IC50 [1]: 20.8 nM
- NO IC50 Relative to RTA 402 (fold) (Mean ± SD) [1]: 12.84 fold

SMILES: CC(=O)OCCn1nnc([C@]23CCC(C)(C)C[C@H]2[C@H]2C(=O)C=C4[C@@]5(C)C=C(C#N)C(=O)C(C)(C)[C@@H]5CC[C@@]4(C)[C@]2(C)CC3)n1 [Compound T8]
- IC50 [1]: 0.64 nM
- NO IC50 Relative to RTA 402 (fold) (Mean ± SD) [1]: 0.41 fold

SMILES: C[C@@H]1C(=O)C(C#N)=C[C@]2(C)C3=CC(=O)[C@@H]4[C@@H]5CC(C)(C)CC[C@]5(c5nnc(CF)o5)CC[C@@]4(C)[C@]3(C)CC[C@@H]12 [Compound T38]
- IC50 [1]: 0.46 ± 0.02 nM
- NO IC50 Relative to RTA 402 (fold) (Mean ± SD) [1]: 0.20 ± 0.02 fold
- AREc32 EC2X Relative to RTA 402 (fold) (Mean ± SD) [2]: 0.43 ± 0.14 fold
- EC (2-fold) [2]: 3.95 ± 1.12 nM

SMILES: C[C@@H]1C(=O)C(C#N)=C[C@]2(C)C3=CC(=O)[C@@H]4[C@@H]5CC(C)(C)CC[C@]5(c5noc(CF)n5)CC[C@@]4(C)[C@]3(C)CC[C@@H]12 [Compound T39]
- IC50 [1]: 1.98 nM
- NO IC50 Relative to RTA 402 (fold) (Mean ± SD) [1]: 0.42 fold
- AREc32 EC2X Relative to RTA 402 (fold) (Mean ± SD) [2]: 0.20 fold
- EC (2-fold) [2]: 1.88 nM

SMILES: CC(C)c1noc([C@]23CCC(C)(C)C[C@H]2[C@H]2C(=O)C=C4[C@@]5(C)C=C(C#N)C(=O)C(C)(C)[C@@H]5CC[C@@]4(C)[C@]2(C)CC3)n1 [Compound T27]
- IC50 [1]: 6.03 nM
- NO IC50 Relative to RTA 402 (fold) (Mean ± SD) [1]: 3.72 fold

SMILES: COC(=O)NCCc1noc([C@]23CCC(C)(C)C[C@H]2[C@H]2C(=O)C=C4[C@@]5(C)C=C(C#N)C(=O)C(C)(C)[C@@H]5CC[C@@]4(C)[C@]2(C)CC3)n1 [Compound T17]
- IC50 [1]: 0.75 nM
- NO IC50 Relative to RTA 402 (fold) (Mean ± SD) [1]: 0.48 fold

SMILES: COCCc1noc([C@]23CCC(C)(C)C[C@H]2[C@H]2C(=O)C=C4[C@@]5(C)C=C(C#N)C(=O)C(C)(C)[C@@H]5CC[C@@]4(C)[C@]2(C)CC3)n1 [Compound T15]
- IC50 [1]: 0.6 ± 0.05 nM
- NO IC50 Relative to RTA 402 (fold) (Mean ± SD) [1]: 0.38 ± 0.04 fold

SMILES: COCCn1nnc([C@]23CCC(C)(C)C[C@H]2[C@H]2C(=O)C=C4[C@@]5(C)C=C(C#N)C(=O)C(C)(C)[C@@H]5CC[C@@]4(C)[C@]2(C)CC3)n1 [Compound T9]
- IC50 [1]: 1.27 nM
- NO IC50 Relative to RTA 402 (fold) (Mean ± SD) [1]: 0.82 fold

SMILES: Cc1nnc([C@]23CCC(C)(C)C[C@H]2[C@H]2C(=O)C=C4[C@@]5(C)C=C(C#N)C(=O)[C@@H](C)[C@@H]5CC[C@@]4(C)[C@]2(C)CC3)o1 [CC4, reference compound]
- IC50 [1]: 0.66 ± 0.06 nM
- NO IC50 Relative to RTA 402 (fold) (Mean ± SD) [1]: 0.51 ± 0.02 fold
- EC (2-fold) [2]: 8.12 ± 3.53 nM

SMILES: CC1(C)CC[C@]2(c3nc(C(C)(C)C)no3)CC[C@]3(C)[C@H](C(=O)C=C4[C@@]5(C)C=C(C#N)C(=O)C(C)(C)[C@@H]5CC[C@]43C)[C@@H]2C1 [Compound T28]
- IC50 [1]: 22.3 nM
- NO IC50 Relative to RTA 402 (fold) (Mean ± SD) [1]: 13.75 fold

SMILES: CC(=O)NCCc1noc([C@]23CCC(C)(C)C[C@H]2[C@H]2C(=O)C=C4[C@@]5(C)C=C(C#N)C(=O)C(C)(C)[C@@H]5CC[C@@]4(C)[C@]2(C)CC3)n1 [Compound T19]
- IC50 [1]: 0.94 nM
- NO IC50 Relative to RTA 402 (fold) (Mean ± SD) [1]: 0.60 fold

SMILES: CC1(C)CC[C@]2(c3nc(C4CCC4)no3)CC[C@]3(C)[C@H](C(=O)C=C4[C@@]5(C)C=C(C#N)C(=O)C(C)(C)[C@@H]5CC[C@]43C)[C@@H]2C1 [Compound T31]
- IC50 [1]: 9.34 nM
- NO IC50 Relative to RTA 402 (fold) (Mean ± SD) [1]: 5.76 fold
